Broadly, the IC50 is the concentration that gives 50% inhibition. A lower IC50 goes with greater potency.

Values joined by “and” are separate entries in the source; they are usually repeats but may differ in a detail not shown here. Equal values may be shown once. Some results are limits rather than exact numbers.

Nonstructural protein 3, sequence (A0A024AXB9 whole entry): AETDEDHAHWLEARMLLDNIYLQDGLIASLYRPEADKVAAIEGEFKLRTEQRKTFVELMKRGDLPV

The experiment concerns the target Nonstructural protein 3 (Zika virus, UniProt A0A024AXB9). Put plainly: Functional biochemical assay to identify treatments for viral infectious disease that targets Zika NS2B-NS3 protease. Utilizing a direct enzyme activity measurement method, reading the fluorescence intensity is used to characterize the relative potency of inhibitors as IC50. Further details: species or system PRVABC59.
On to `Cc1c(C(=O)Nc2cc(C3(C)OCCO3)ccn2)cc(C2CC2)n1C`, for which the IC50 is over 25000 nM.
Compound `O=C1OCc2ccc(NC(=O)[C@H]3CCNC34CCCC4)cc21` had an IC50 of over 25000 nM.
For `O=C(Nc1cc2c(cc1Br)CNC2)c1cc(Cl)cc2[nH]ncc12`, the IC50 was 51 nM and 34 nM.
For `O=C(Nc1ccc2c(c1)CNC2)c1cc(Cl)cc2nn[nH]c12`, the concentration for half-maximal inhibition (IC50) came to 9550 nM.
As to `O=C(Nc1ccc2c(c1)CNC2)c1ccc2[nH]ncc2c1`, half-maximal inhibition (IC50) required 2010 nM.
For `O=C(Nc1ccc2c(c1)CNC2)c1cccc2[nH]c(C(F)(F)F)cc12`, the IC50 is 46 nM and 43 nM.
On to `O=C(Nc1ccc2c(c1)CNC2)c1cc(Cl)cc2[nH]c(-c3ccnn3C3CC3)nc12`, for which the IC50 is 100 nM and 76 nM.
Then `CN1Cc2cc(NC(=O)c3cc(Cl)cc4[nH]ncc34)ccc2C1(C)C`, with 7290 nM; and `O=C(Nc1ccc2nc[nH]c2c1)c1cc(F)cc2[nH]ncc12`, with 3300 nM; and `Cn1cc(C(F)(F)F)nc1C(=O)Nc1cc(-c2cccnc2)ccn1`, with over 25000 nM.
As for `CC(C)CCN1Cc2ccc(NC(=O)c3cc(Cl)cc4[nH]ncc34)cc2C1`, the midpoint of inhibition, the IC50, lay at 3390 nM.
Then `O=C(Nc1ccc2c(c1)CNC2)c1cc(Cl)cc2[nH]c(-c3nc4c(s3)CCC4)nc12`, with 423 nM; and `COc1ccc2[nH]cnc2c1S(=O)(=O)Nc1ccc2c(c1)CNC2`, with over 25000 nM.
In the case of `O=C(Nc1ccc2c(c1)CNC2)c1ccc2c(c1)CCC2`, the IC50 came to 11700 nM.
`O=C(Nc1ccc2c(c1)C(=O)OC2)c1cc(CC2CCNCC2)ccc1F` came in with an IC50 of over 25000 nM.
With `Cn1nc(C(=O)Nc2cc(-c3cccnc3)ccn2)cc1C1CC1`, the IC50 was over 25000 nM.
On to `O=C(Nc1ccc2c(c1)CNC2)c1cc(Cl)cc2[nH]c(-c3ccc(F)cc3O)nc12`, for which the 50% inhibitory concentration (IC50) is 87 nM and 58 nM.
With `O=C1OCc2ccc(NC(=O)c3cccc4c3CNC4)cc21` the figure was over 25000 nM; with `CCOC(=O)c1csc([C@H]2CCCN2C(=O)Nc2ccc3c(c2)CNC3)n1`, over 25000 nM; with `O=C1OCc2ccc(NC(=O)[C@H]3CNC4(CCCC4)C3)cc21`, over 25000 nM.
With `Cc1c(C(=O)Nc2cc(-c3cccnc3)ccn2)cc(C(C)C)n1C` the figure was over 25000 nM; with `O=C(Nc1ccc2c(c1)CNC2)c1nc(C(F)(F)F)cs1`, over 25000 nM; with `Cc1c(C(=O)Nc2cc(-c3cccnc3)ccn2)cc(C2CCCCC2)n1C`, over 12500 nM.
Take `c1cc([C@@H]2C[C@H]2c2ccc3c(c2)CNC3)c2cn[nH]c2c1`: the IC50 was over 25000 nM.
As for `O=C(Nc1ccc2c(c1)CNC2)c1cc(Br)cc2[nH]c([C@H]3CCCO3)nc12`, the IC50 is 274 nM.
In the case of `Cc1c(C(=O)Nc2cc(C3CCOCC3)ccc2F)cc(C2CC2)n1C`, the IC50 was over 25000 nM.
On to `CN1C(=O)Cc2cc(C(=O)Nc3ccc4c(c3)CNC4)ccc21`, for which the IC50 was over 25000 nM.
`C=CC[C@H]1NCc2cc(NC(=O)c3cc(Cl)cc4[nH]ncc34)ccc21` showed an IC50 of 449 nM.
`O=C(Nc1ccc2c(c1)CNC2)c1cccc2c1OCCN2` registered an IC50 of 8240 nM.
In the case of `C[C@](N)(C(=O)Nc1ccc2c(c1)C(=O)OC2)c1cccs1`, the IC50 was over 25000 nM.
With `CC1(C)C(=O)N[C@H]2CCCN(C(=O)Nc3ccc4c(c3)CNC4)[C@H]21` the figure was over 25000 nM; with `O=C1C[C@H]2[C@H](CCCN2C(=O)Nc2ccc3c(c2)CNC3)N1`, over 25000 nM; with `O=C(Nc1ccc2c(c1)S(=O)(=O)NC2)c1cc(Cl)cc2[nH]ncc12`, over 25000 nM.
On to `O=C(Nc1ccc2c(c1)CNC2)N1CC[C@H](Oc2ccc(C3CC3)cn2)C1`, for which the IC50 is over 25000 nM.
For `CCc1ccc(-c2nc3c(C(=O)Nc4ccc5c(c4)CNC5)cc(Cl)cc3[nH]2)cc1`, the IC50 was 163 nM.
`O=C(Nc1ccc2c(c1)CNC2)N1CCC[C@H]1c1nc2ncccc2[nH]1` registered an IC50 of over 25000 nM.
As for `Cc1c(C(=O)NCc2ccnc(OC3CCOCC3)c2)cc(C2CC2)n1C`, the IC50 is over 25000 nM.
Consider `O=C1Cc2c(C(=O)Nc3ccc4c(c3)CNC4)ccnc2N1`, for which the IC50 stood at 22800 nM.
In the case of `O=C1NS(=O)(=O)c2ccc(NC(=O)c3cc(Cl)cc4[nH]ncc34)cc21`, the IC50 was over 25000 nM.
`Cc1c(C(=O)NCc2cccc(C3COC3)c2)cc(C2CC2)n1C` showed an IC50 of over 25000 nM.
Take `CC(C)(C)c1nc2c(C(=O)Nc3ccc4c(c3)CNC4)cc(Br)cc2[nH]1`: the concentration for half-maximal inhibition (IC50) was 328 nM.
`O=C(Nc1ccc2c(c1)CNC2)N1CCC[C@@H]1COCc1ccccc1` displayed an IC50 of over 25000 nM.
As to `CNC(=O)c1cccc(C(=O)Nc2ccc3c(c2)CNC3)c1`, half-maximal inhibition (IC50) required 870 nM.
For `C#C[C@H](Nc1ccc2c(c1)CNC2)c1cccc2[nH]c(=O)[nH]c12`, the IC50 is 7050 nM.
Then `O=C(Nc1ccc2c(c1)CNC2)c1cc(Cl)cc2cc[nH]c12`, with 70 nM and 65 nM; and `O=C(Nc1ccc2c(c1)C(=O)OC2)c1cccc(CC2CNC2)c1`, with over 25000 nM; and `O=C(Nc1cc(-c2cccnc2)ccn1)c1csc(C2CC2)n1`, with over 25000 nM.
As to `O=C(Nc1ccc2c(c1)CNC2)c1cccc2[nH]ccc12`, the IC50 is 281 nM.
For the compound `O=C1Cc2c(cc(F)cc2C(=O)Nc2ccc3c(c2)CNC3)N1`, the IC50 is 26 nM and 14 nM.
With `O=C1OCc2ccc(NC(=O)[C@H]3CCNC3)cc21` the figure was over 25000 nM; with `O=C(Nc1ccc2c(c1)CNC2)c1cc(Cl)ccc1-n1cnnn1`, 1050 nM; with `C=CC[C@H]1NCc2cc(N[C@H](C(=O)NC(C)C)c3cc(Cl)cc4[nH]ncc34)ccc21`, 994 nM.
Compound `CC1=C(c2cc(NC(=O)c3cc(Cl)cc4[nH]ncc34)cc3c2CNC3)CCC1=O` yielded an IC50 of 137 nM.
In turn, `Cn1c(C2CC2)cc(C(=O)Nc2cc(-c3cccnc3)ccn2)c1C1CC1` returned an IC50 of over 25000 nM.
Consider `O=C1OCc2ccc(NC(=O)[C@H]3CNCc4[nH]ncc43)cc21`, for which the IC50 was over 25000 nM.
Then `O=C(Nc1cc(-c2cccnc2)ccn1)c1cc(C2CC2)no1`, with over 25000 nM.
For `Cn1c(=O)[nH]c2c(C(=O)Nc3ccc4c(c3)CNC4)cc(Br)cc21`, the IC50 is 34 nM and 22 nM.
On to `O=C(Nc1ccc2c(c1)CNC2)c1cc(Cl)cc2[nH]c(-c3cc(C4CC4)[nH]n3)nc12`, for which the IC50 is 80 nM and 29 nM and 61 nM.
`N#C[C@H](Nc1ccc2c(c1)CNC2)c1cccc2ncccc12` showed an IC50 of 7260 nM.
The compound `Cn1nc(C2CC2)cc1C(=O)Nc1cc(-c2cccnc2)ccn1` gave an IC50 of over 25000 nM.
Consider `NC[C@H]1CC[C@@H](NC(=O)c2cc(Cl)cc3[nH]ncc23)CC1`, for which 10700 nM corresponded to half-maximal inhibition (IC50).
The compound `O=C(Nc1ccc2c(c1)CNC2)c1cc(Cl)cc(C(F)(F)F)n1` registered an IC50 of 21000 nM.
Turning to `O=C(Nc1cc(-c2cccnc2)ccn1)c1cnc(C2CC2)s1`, the half-inhibitory concentration (IC50) is over 25000 nM.
`CC1(C)C[C@H](C(=O)Nc2ccc3c(c2)C(=O)OC3)CCN1` yielded an IC50 of over 25000 nM.
The compound `O=C(Nc1ccc2c(c1)CNC2)c1cccc2c1OCO2` registered an IC50 of 2870 nM.
Consider `Cc1nnc(SC[C@H]2CCCN2C(=O)Nc2ccc3c(c2)CNC3)s1`, for which 5770 nM corresponded to half-maximal inhibition (IC50).
`O=C(Nc1ccc2c(c1)CNC2)c1cccc2nc(O)ccc12` gave an IC50 of 204 nM.
As for `O=C1Cc2cc(C(=O)Nc3ccc4c(c3)CNC4)c(Cl)cc2N1`, the half-maximal inhibitory concentration (IC50) was over 25000 nM.
Then `Cc1nc2ccc(C(=O)Nc3ccc4c(c3)CNC4)cc2s1`, with over 25000 nM.
In the case of `COCc1cc(Cl)cc(C(=O)Nc2ccc3c(c2)CNC3)c1`, half-maximal inhibition (IC50) was put at 785 nM.
On to `O=C(Nc1ccc2c(c1)CNC2)c1cc(Br)cc2c1nc1n2CCCC1`, for which the IC50 was 554 nM.
Consider `O=C(Nc1ccc2c(c1)CNC2)c1nc(-c2ccccc2)cs1`, for which the IC50 was over 25000 nM.
With `O=C(Nc1ccc2c(c1)CNC2)c1cc(Cl)cc(N2CCCC2=O)c1` the figure was 187 nM.
Consider `COc1cc(Cl)cc(C(=O)Nc2ccc3c(c2)CNC3)c1`, for which the IC50 came to 260 nM.
For `O=C1Cc2cc(C(=O)Nc3ccc4c(c3)CNC4)ccc2N1`, the IC50 was 2410 nM and 6850 nM.
The compound `Fc1cc(CNc2ccc3c(c2)CNC3)c2cn[nH]c2c1` showed a concentration for half-maximal inhibition (IC50) of 3510 nM.
The compound `CC(=O)N1Cc2ccc(NC(=O)c3cc(Cl)cc4[nH]ncc34)cc2C1` gave an IC50 of over 25000 nM.
`COc1ncc(Cl)cc1C(=O)Nc1ccc2c(c1)CNC2` showed an IC50 of 2580 nM.
`NCCC1(C(=O)Nc2ccc3c(c2)C(=O)OC3)CCCC1` showed a half-maximal inhibitory concentration (IC50) of over 25000 nM.
With `Cn1nc(C(=O)Nc2cc([C@H]3CCOC3)ccn2)cc1C1CC1`, the IC50 is over 25000 nM.
The compound `Cc1c(C(=O)Nc2cccc(C3CCOCC3)c2)cc(C2CC2)n1C` displayed an IC50 of over 25000 nM.
For the compound `O=C1CCCc2cc(C(=O)Nc3ccc4c(c3)CNC4)ccc2N1`, the IC50 is over 25000 nM.
Regarding `O=C(Nc1ccc2c(c1)CNC2)c1cc(Cl)cc2nn(-c3ccccc3)nc12`, the half-maximal inhibitory concentration (IC50) is 372 nM and 3470 nM.
Then `CCC[C@H](C)N1Cc2ccc(NC(=O)c3cc(Cl)cc4[nH]ncc34)cc2C1`, with 3200 nM; and `O=C(Nc1cc(-c2cccnc2)ccn1)c1coc(C2CC2)n1`, with over 25000 nM.
As to `N#Cc1cccc(-c2nc3c(C(=O)Nc4ccc5c(c4)CNC5)cc(Cl)cc3[nH]2)c1`, the concentration for half-maximal inhibition (IC50) was 99 nM and 18 nM and 48 nM.
As to `O=C(Nc1ccc2c(c1)CNC2)c1cccc2cn[nH]c12`, the IC50 was 207 nM and 615 nM.
`CO[C@]1(C(=O)Nc2ccc3c(c2)C(=O)OC3)CCCNC1` displayed an IC50 of over 25000 nM.
Consider `C#Cc1cc(Cl)cc(C(=O)Nc2ccc3c(c2)CNC3)c1`, for which the IC50 came out at 268 nM.
Then `O=C1Cc2c(cc(Br)cc2C(=O)Nc2ccc3c(c2)C(=O)OC3)N1`, with over 25000 nM; and `O=C(Nc1ccc2c(c1)CNC2)c1cc(Cl)cc2ccccc12`, with 113 nM; and `O=C1CN(C(=O)Nc2ccc3c(c2)CNC3)[C@H]2CCCC[C@H]2N1`, with over 25000 nM.
In the case of `O=C(Nc1ccc2c(c1)CNC2)N1CCC[C@H]1Cc1cc2ccccc2o1`, the IC50 was over 25000 nM.
`O=C(Nc1ccc2c(c1)CNC2)c1cc(Cl)cc2c1NCCC2` registered an IC50 of 151 nM.
With `Cn1nc(C(F)(F)F)cc1C(=O)Nc1cc(-c2cccnc2)ccn1` the figure was over 25000 nM; with `O=C(Nc1ccc2c(c1)CNC2)c1cc(Cl)cc2[nH]c(-c3cnc(C4CC4)o3)nc12`, 50 nM and 27 nM.
The compound `O=C(Nc1ccc2c(c1)CNC2)c1cc(Cl)cc(N2CCCC2)c1` had an IC50 of 114 nM.
Take `CC(=O)Nc1cccc(C(=O)Nc2ccc3c(c2)CNC3)c1`: half-maximal inhibition (IC50) required 863 nM.
